In patent US20110098554A1, “Monitoring of convection enhanced drug delivery” (priority 2004, published 2011):

Key:
[1] = test system: striatum of normal Sprague-Dawley (SD) rats; assay: Cytotoxic tissue response to CED by T2-weighted and diffusion-weighted MRI and histology
Protocol: The resultant solution was infused into the striatum of normal Sprague-Dawley (SD) rats (males, 250-300 grams). T1-weighted MR images were acquired immediately post treatment to assess the extent of convection. Additionally, T2-weighted and diffusion-weighted MR images were acquired 24 hours post treatment to assess the response of the tissue and its correlation to the extent of convection.
Under full anesthesia, a midline scalp incision was made to identify the bregma. A 1 mm burr hole was made in the right region of the skull, 3 mm anterior and 2 mm lateral to the bregma. A 33-gauge needle attached to a 1000 μl syringe (Gastight; Hamilton) was placed stereotactically 5.5 mm deep into the striatum. The infusion was performed using a BASI syringe pump at a rate of 1 μl/min for a duration ranging from […].
In order to obtain a wide range in volumes of distribution, the infusion times were varied between 17 to 60 minutes. 13 rats were treated with Carboplatin (4 mg/ml, 17 minutes infusion). […]
The volume (in cm^3) of the composition distribution was calculated from the T1-weighted MR images acquired immediately post CED treatment. […] The number of pixels in the ROIs was counted and multiplying by the volume of a single pixel. […]

[2] = test system: malignant gliomas; conditions: first 24-48 hours post intratumoral CED, patients with recurrent malignant brain tumors; cited from earlier work
[3] = test system: C26 colon cancer tumors; assay: CED of high viscosity toxic infusates in C26 tumors in mice thigh, MRI; type: in vivo, balb-c mice
Protocol: Five balb-c mice, bearing large (over 2 cm in diameter) C26 colon cancer tumors in the thigh, were treated with CED of high viscosity toxic infusates. […] Two mice were treated with a high concentration combination of Ethanol and Cremaphore (150 μl Ethanol and 150 μl Cremaphore diluted with Saline to 1 ml) at infusion rate of 4 μl/min for 105 minutes.
Infusates were mixed with Gd (1:70) prior to treatment. MR images were acquired immediately post treatment to assess the distribution of the drug within the tumor.

| SMILES | enhancement in diffusion-weighted MR images ([1]; 24 hours post treatment, cases of efficient convection) | water diffusion changes on diffusion-weighted MRI [2] | histology of en block-resected lesion ([1]; rat, in vivo) | tumor tissue response (T2 MRI 24 hours post treatment) ([3]; mouse of FIGS. 16, efficient CED) | tumor tissue response (T2 MRI 24 hours post treatment) ([3]; mouse of FIGS. 17, inefficient CED) |
| --- | --- | --- | --- | --- | --- |
| N.N.O=C([O-])C1(C(=O)[O-])CCC1.[Pt+2] [Carboplatin] | significant enhancement | – | – | – | – |
| CC(=O)O[C@H]1C(=O)[C@@]2(C)[C@H]([C@H](OC(=O)c3ccccc3)[C@]3(O)C[C@H](OC(=O)[C@H](O)[C@@H](NC(=O)c4ccccc4)c4ccccc4)C(C)=C1C3(C)C)[C@]1(OC(C)=O)CO[C@@H]1C[C@@H]2O [Taxol®, Paclitaxel] | – | clear changes | Severe damage covering most of the striatum | complete necrosis | no significant change in the tumor |
